We go through one compound from US20080021042A1, “Composition For Controlling Neuropathic Pain” (priority 2004, published 2008).

Structures are written as SMILES.

One data set concerns motor coordination. Description: motor coordination test (mice rotating rod test, Rota-rod). Type of data set: in vivo, mouse. The note with it: 30 mg/kg orally, 16 rpm, cut-off 60 seconds, FIG. 4. On the procedure:
The effect of the compound of Example 1 on motor coordination was evaluated by means of mice rotating rod test.
Five male BALB/c, 6-7 weeks old mice per group were used. The mouse was trained for 2 or more days so that it could remain on the Rota-rod treadmill (Ugo Basile) in 3 cm in diameter rotating at 16 rpm for at least 60 seconds when it was placed on the rod with the head directed against the direction of rotation. Before the evaluation, three trials were conducted with 10 min or more intervals and the mice which could remain on the rod more than 60 seconds in all three times were selected for the evaluation. The selected mice were divided into test groups.
The time obtained in the third trial was used as the before administration value. Mice were orally received 30 mg/kg of the compound of Example 1 or gabapentin and placed on the rotating rod. The duration of time the mouse remained on the rod was recorded. A cut-off time of 60 seconds was employed and when an animal could remain more than 60 seconds, the time was recorded as 60 seconds.
A general note: Falling from the rotarod earlier than controls is read as motor impairment.

In a further data set the test system is neuropathic pain. The note with it: oral administration, in general; cited from earlier work.

For the compound `NCC1(CC(=O)O)CCCCC1` [gabapentin], the “duration of time the mouse remained on the rotating rod” value in the data set with motor coordination was “no reduction of the remaining time”. The “onset of analgesic action” value in the data set with neuropathic pain is 1 to 2 h.
